Results published in patent US20260216294A1, “BETA 2-ADRENERGIC RECEPTOR AGONISTS FOR TREATMENT OR PREVENTION OF MUSCLE WASTING” (ATROGI AB, priority 2023, published 2026).

Tests used:
[1] = system: L6-myotubes; experiment: Glucose uptake in differentiated L6-myotubes (Biological Example 2); assay type: cell-based; conditions: for Emax at 10 µM: read-out: Biological example 2 (GU)
Summary of the method: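 Differentiated L6 myotubes were serum-starved overnight in 0.5% fatty-acid-free BSA and then stimulated with compound or isoprenaline at 1×10^−5 M final. After 1 h 40 min cells were washed and re-dosed in glucose-free medium. Twenty minutes later, uptake of 50 nM ^3H-2-deoxyglucose over 10 min was measured by scintillation counting of NaOH lysates.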

[2] = system: L6-myotubes; experiment: Measurement of intracellular cAMP levels in differentiated L6-myotubes (Biological Example 3); assay type: cell-based; conditions: for Emax at 10 µM: 0.25 h
Summary of the method: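 Serum-starved differentiated L6 myotubes stimulated 15 min with test compound at 1×10^−5 M final (isoprenaline as reference) in HBSS with 1% BSA, 5 mM HEPES, 1 mM IBMX, pH 7.4. Cells EtOH-extracted, lysed, and intracellular cAMP measured by AlphaScreen.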

[3] = glucose uptake, compound at 10 μM relative to isoproterenol at 10 μM
[4] = intracellular cAMP, compound at 10 μM relative to isoproterenol at 10 μM
[5] = glucose uptake in differentiated L6-myotubes, compound at 10 μM, activity relative to isoproterenol at 10 μM
[6] = intracellular cAMP in differentiated L6-myotubes, compound at 10 μM, activity relative to isoproterenol at 10 μM

Row | SMILES | Emax at 10 µM [1, 3] | Emax at 10 µM [2, 4] | Emax at 10 µM [1, 5] | Emax at 10 µM [2, 6] | also measured
1 | C[C@H]1CC[C@@H]([C@H](O)c2ccccc2)N1 (racemic) [Compound 38, Racemic mixture of (R)-[(2S,5S)-5-methyl-2-pyrrolidinyl]phenylmeth anol and (S)-[(2R,5R)-5-methyl-2-pyrrolidinyl]] phenylmethanol] | 25 to 50% | < 25% |  |  | 
2 | O=C(N[C@H]1CC[C@H](CNC[C@H](O)c2cccc(F)c2)CC1)c1ccccc1 [Compound 315, N-[(1R,4r)-4-{[(R)-2-(m-fluorophenyl)-2-hydroxyethylamino]methyl}cyclohexyl] benzamide] |  |  | > 75% | < 25% | 
3 | COc1ccc(CCC23CCC([C@H](O)c4cncc(F)c4)(CC2)N3)cc1 [Compound 542, (R)-(5-fluoro-3-pyridyl){4-[2-(p-methoxyphenyl)ethyl]-7-azabicyclo[[2.2.1]]hept-1-yl}methanol] |  |  | 50 to 75% | 25 to 50% | 
4 | Oc1ccc(C(O)CNCCC2CC2)cc1 (centres unmarked) [Compound 24, p-[2-(2-cyclopropylethylamino)-1-hydroxyethyl]phenol] | 50 to 75% | < 25% |  |  | 
5 | CC(C)(C[C@H]1CC[C@@H](NS(C)(=O)=O)CC1)NC[C@@H](O)c1cccc(C#N)n1 [Compound 424, 6-[(R)-2-{1,1-dimethyl-2-[(1s,4S)-4-(mesylamino)cyclohexyl]ethylamino}-1-hydroxyethyl]-2-pyridinecarbonitrile] |  |  | 25 to 50% | < 25% | 
6 | CC(=O)N[C@H]1CC[C@@H](C[C@@H]2CC[C@H]([C@@H](O)c3cccc(F)c3)N2)CC1 [Compound 483] |  |  | < 25% | < 25% | 
7 | CCCCNC[C@H](O)c1cccc(F)c1 [Compound 47, (R)-2-(butylamino)-1-(m-fluorophenyl)-1-ethanol] | 50 to 75% | < 25% |  |  | 
8 | COC(=O)[C@H]1CC[C@@H](C(C)(C)NC[C@H](O)c2cccc(F)c2)CC1 [Compound 328, (1S,4s)-8-[(R)-2-(m-fluorophenyl)-2-hydroxyethylamino]-7-methoxy-p-menthan-7-one] |  |  | > 75% | < 25% | 
9 | CC(C)(C[C@H]1CC[C@@H](NS(=O)(=O)C(F)(F)F)CC1)NC[C@H](O)c1cncc(F)c1 [Compound 522] |  |  | > 75% | < 25% | 
10 | CC(C)(C[C@H]1CC[C@@H](S(N)(=O)=O)CC1)NC[C@H](O)c1cncc(F)c1 [Compound 519, (1S,4s)-4-{2-[(R)-2-(5-fluoro-3-pyridyl)-2-hydroxyethylamino]-2-methylpropyl} cyclohexanesulfonamide] |  |  | > 75% | < 25% | 
11 | CCCCNC[C@H](O)c1ccnc(N)n1 [Compound 73, (S)-1-(2-amino-4-pyrimidinyl)-2-(butylamino)-1-ethanol] | 25 to 50% | < 25% |  |  | 
12 | CCCC(C)NCC(O)c1cc(Cl)c(O)c(Cl)c1 (centres unmarked) [Compound 25, 1-(3,5-dichloro-4-hydroxyphenyl)-2-(1-methylbutylamino)-1-ethanol] | < 25% | < 25% |  |  | 
13 | COC(=O)[C@H]1CC[C@H](CCC(C)(C)NC[C@H](O)c2cncc(F)c2)CC1 [Compound 342, methyl (1R,4r)-4-{3-[(R)-2-(5-fluoro-3-pyridyl)-2-hydroxyethylamino]-3-methylbutyl} cyclohexanecarboxylate] |  |  | > 75% | < 25% | 
14 | CC(C)(NC[C@H](O)c1cccc(F)c1)[C@H]1CC[C@H](O)CC1 [Compound 283, (R)-1-(m-fluorophenyl)-2-{1-methyl-1-[(1r,4R)-4-hydroxycyclohexyl]ethylamino}-1-ethanol] |  |  | 50 to 75% | < 25% | 
15 | CC(C)(C[C@H]1CC[C@H](NC(=O)OC(C)(C)C)CC1)NC[C@H](O)c1cccc(C(F)(F)F)n1 [Compound 459] |  |  | > 75% | < 25% | 
16 | CCC[C@H]1CCC[C@H]([C@@H](O)c2ccc(F)c(F)c2)N1 [Compound 65] | 25 to 50% | < 25% |  |  | 
17 | CC1(C)C[C@H]([C@H](O)c2cncc(F)c2)N1 [Compound 214] |  |  | > 75% | < 25% | 
18 | CC12CCC([C@@H](O)c3cccc(Cl)c3)(CC1)N2 [Compound 196, (S)-(m-chlorophenyl)(4-methyl-7-azabicyclo[[2.2.1]]hept-1-yl)methanol] | 25 to 50% | < 25% |  |  | 
19 | CCS(=O)(=O)N[C@H]1CC[C@H](CC(C)(C)NC[C@H](O)c2cncc(F)c2)CC1 [Compound 525, (R)-2-{1,1-dimethyl-2-[(1r,4R)-4-(ethylsulfonylamino)cyclohexyl]ethylamino}-1-(5-fluoro-3-pyridyl)-1-ethanol] |  |  | 50 to 75% | < 25% | 

Row | SMILES | Emax at 10 µM [1, 3] | Emax at 10 µM [2, 4] | Emax at 10 µM [1, 5] | Emax at 10 µM [2, 6] | also measured
20 | CC12CCC([C@H](O)c3cccc(Cl)c3)(CC1)N2 [Compound 197, (R)-(m-chlorophenyl)(4-methyl-7-azabicyclo[[2.2.1]]hept-1-yl)methanol] | > 75% | < 25% |  |  | 
21 | O[C@H](c1cccc(F)c1)C12CCC(Cc3ccc(OC(F)(F)F)cc3)(CC1)N2 [Compound 500, (S)-(m-fluorophenyl){4-[(p-trifluoromethoxyphenyl)methyl]-7-azabicyclo[[2.2.1]]hept-1-yl}methanol] |  |  | < 25% | < 25% | 
22 | CC(C)(C[C@H]1CC[C@H](NC(=O)C(F)(F)F)CC1)NC[C@H](O)c1cccc(F)c1 [Compound 433] |  |  |  |  | Biological example 2 (GU) [1, 5]: +++ (If a compound at 10 μM shows activity of more than 75% of that of isoproterenol at 10 μM, the activity is denoted with +++); Biological example 3 (CAMP) [2, 6]: + (if it is between 50 and 25% it is denoted with +)
23 | COc1ccc(C[C@@H]2CC[C@H]([C@H](O)c3cccc(F)c3)N2)cc1 [Compound 373, (R)-{(2R,5S)-5-[(p-methoxyphenyl)methyl]-2-pyrrolidinyl}(m-fluorophenyl)methanol] |  |  | > 75% | 25 to 50% | 
24 | CCCCNC[C@H](O)c1cnc(N)s1 [Compound 75, (S)-1-(2-amino-1,3-thiazol-5-yl)-2-(butylamino)-1-ethanol] | 25 to 50% | < 25% |  |  | 
25 | CC1(C)CC[C@H]([C@@H](O)c2cncc(O)c2)N1 [Compound 166, 5-{(S)-[(R)-5,5-dimethyl-2-pyrrolidinyl] hydroxymethyl}-3-pyridinol] | 25 to 50% | < 25% |  |  | 
26 | CC(C)(NC[C@H](O)c1cccc(F)c1)[C@H]1CC[C@@H](OCC(=O)O)CC1 [Compound 408] |  |  | 50 to 75% | < 25% | 
27 | CC(=O)N[C@H]1CC[C@H](CNC[C@H](O)c2cncc(F)c2)CC1 [Compound 309] |  |  | 50 to 75% | < 25% | 
28 | CCCCNCC(O)c1ccncc1 (centres unmarked) [Compound 48, 2-(butylamino)-1-(4-pyridyl)-1-ethanol] | 25 to 50% | < 25% |  |  | 
29 | CCC[C@@H]1CC[C@H]([C@H](O)c2cncc(F)c2)N1 [Compound 160, (R)-[(2R,5R)-5-propyl-2-pyrrolidinyl](5-fluoro-3-pyridyl)methanol] |  | < 25% |  |  | Biological example 2 (GU) [1, 3]: +++ (If a compound at 10 μM shows activity of more than 75% of that of isoproterenol at 10 μM, the activity is denoted with +++)
30 | CCCC1(CCC)CC[C@H]([C@H](O)c2cccc(F)c2)N1 [Compound 159] | 50 to 75% | < 25% |  |  | 
31 | CCCCNC[C@H](O)c1cccc(N)c1F [Compound 90, (R)-1-(3-amino-2-fluorophenyl)-2-(butylamino)-1-ethanol] | 50 to 75% | < 25% |  |  | 
32 | CO[C@H]1CC[C@H](C[C@]2(C)CC[C@H]([C@H](O)c3cccc(F)c3)N2)CC1 [Compound 364, (R)-[(2R,5S)-5-methyl-5-{[(1r,4S)-4-methoxycyclohexyl]methyl}-2-pyrrolidinyl] (m-fluorophenyl)methanol] |  |  | > 75% | 50 to 75% | 
33 | O[C@@H](c1cccc(F)c1)C12CCC(CCCc3ccccc3)(CC1)N2 [Compound 535, (S)-(m-fluorophenyl){4-(3-phenylpropyl)-7-azabicyclo[[2.2.1]]hept-1-yl}methanol] |  |  | 25 to 50% | < 25% | 
34 | CCCCNCC(O)c1ccc(F)c(N)c1F (centres unmarked) [Compound 43, 1-(3-amino-2,4-difluorophenyl)-2-(butylamino)-1-ethanol] | > 75% | < 25% |  |  | 
35 | CC(C)(C[C@H]1CC[C@@H](NC(=O)C(C)(C)C)CC1)NC[C@H](O)c1cncc(F)c1 [Compound 455] |  |  | 50 to 75% | < 25% | 
36 | Oc1ccc(C(O)CNC2CCCC2)cc1 (centres unmarked) [Compound 10, p-[2-(cyclopentylamino)-1-hydroxyethyl]phenol] | 50 to 75% | < 25% |  |  | 
37 | CC(C)(CC[C@H]1CC[C@@H](O)CC1)NC[C@H](O)c1cccc(F)c1 [Compound 295, (R)-2-{1,1-dimethyl-3-[(1s,4R)-4-hydroxycyclohexyl]propylamino}-1-(m-fluorophenyl)-1-ethanol] |  |  | > 75% | < 25% | 
